{"source": "patent US20130184337A1", "about": "“SODIUM ASCORBATE STIMULATION OF ELASTOGENESIS” (THE HOSPITAL FOR SICK CHILDREN, priority 2012, published 2013)", "key": {"[1]": {"system": "normal dermal fibroblasts", "experiment": "Collagen fiber deposition (immuno-staining of collagen type I, morphometry)", "type": "cell-based, human", "experimental": "Cell Cultures—Fibroblasts initially grew out from the explants of these full thickness skin biopsies and were maintained. The primary cultures of fat-derived fibroblasts obtained from Thermogenesis (Rancho Cordova, Calif.) were also tested. In all described experiments, 2-4 passages of both kinds of fibroblasts were used. In experiments aimed at assessing ECM production, cells were initially plated at a concentration of 100,000 cells/dish. Confluent cultures were then maintained either in serum-free medium (DMEM) or in medium supplemented with 5% FBS in the presence of different reagents that were added 1 hour before treatments with SA.\n(§1) Immuno-staining—All cultures maintained in the presence and absence of indicated reagents were either fixed in cold 100% methanol at −20° C. (for detection of elastin) or in 4% paraformaldehyde at room temperature (for detection of collagen I). The multiple parallel cultures were then incubated with 10 μg/ml of polyclonal antibody to tropoelastin (Elastin Products, Owensville, Mich.), or polyclonal antibody to collagen type I (Chemicon, Temecula, Calif.). Cultures were then incubated with the respective fluorescein-conjugated goat anti-rabbit, goat anti-mouse, or rabbit anti-goat secondary antibodies. Nuclei were counterstained with propidium iodide (Sigma, Sigma, St. Louis, Mo.). All of the cultures were then examined with a Nikon Eclipse E1000 microscope attached to a cooled CCD camera (QImaging, Retiga EX) and analyzed by the computer-generated morphometric analysis system (Image-Pro Plus software, Media Cybernetics, Silver Springs, Md.) as previously described."}, "[2]": {"system": "fibroblasts derived from dermal stretch marks", "experiment": "Collagen and elastic fiber deposition in stretch-mark fibroblast cultures", "type": "cell-based, human", "details": "200 μM, 24 hour-old cultures", "experimental": "Cell Cultures-Fibroblasts initially grew out from the explants of these full thickness skin biopsies and were maintained. The primary cultures of fat-derived fibroblasts obtained from Thermogenesis (Rancho Cordova, Calif.) were also tested. In all described experiments, 2-4 passages of both kinds of fibroblasts were used. In experiments aimed at assessing ECM production, cells were initially plated at a concentration of 100,000 cells/dish. […] Immuno-staining-All cultures maintained in the presence and absence of indicated reagents were either fixed in cold 100% methanol at -20° C. (for detection of elastin) or in 4% paraformaldehyde at room temperature (for detection of collagen I). The multiple parallel cultures were then incubated with 10 μg/ml of polyclonal antibody to tropoelastin (Elastin Products, Owensville, Mich.), or polyclonal antibody to collagen type I (Chemicon, Temecula, Calif.). Cultures were then incubated with the respective fluorescein-conjugated goat anti-rabbit, goat anti-mouse, or rabbit anti-goat secondary antibodies. Nuclei were counterstained with propidium iodide (Sigma, Sigma, St. Louis, Mo.). All of the cultures were then examined with a Nikon Eclipse […] microscope attached to a cooled CCD camera (QImaging, Retiga EX) and analyzed by the computer-generated morphometric analysis system (Image-Pro Plus software, Media Cybernetics, Silver Springs, Md.) as previously described. Quantitative Assays of Insoluble Elastin-Fibroblasts were grown to confluency in 35-mm culture dishes (100,000 cells/dish). Next, 2 μCi of [3H]-valine/ml (Amersham Biosciences Ltd. Oakville, Canada), were added to each dish along with or without the indicated treatments. At the end of each experiment, the levels of metabolically labeled NaOH-insoluble elastin present in individual cultures were assayed and normalized per their DNA content."}, "[3]": {"system": "reactive oxygen species (ROS)", "experiment": "Intracellular ROS with CM-H2DCFDA probe (fluorescence microscope, flow cytophotometry)", "type": "cell-based, human", "experimental": "Quantification of Intracellular free radicals-reactive oxygen species (ROS)—To assess the levels of ROS, quadruplicate cultures of normal skin fibroblasts were exposed to 10 μM of ROS-sensitive CM-H2DCFDA fluorescent probe (Molecular Probes, Eugene, Oreg.) for 30 minutes. This probe passively diffuses into the cell interior and only upon oxidation is a fluorescent product released that can be visualized under a fluorescent microscope or captured by flow cytophotometry when excited at 480 nm. Fibroblasts were then maintained for 30 minutes in the presence or absence of 400 μM probenecid, then incubated either for 2 or 24 hours with and without 100 μM AA or 100 μM SA. At the end of these periods the images were captured using a fluorescent microscope under identical parameters of contrast and brightness. The ROS production was also assessed by flow cytophotometry (λ excitation 480 nm; λ emission 520 nm), using FACSCalibur, Beckton Dickinson Instrument."}, "[4]": {"system": "normal dermal fibroblasts", "experiment": "Elastic fiber deposition (immuno-staining morphometry, [3H]-valine insoluble elastin) in monolayer cultures", "type": "cell-based, human", "details": "for elastogenic effects of 100 μM SA after pre-treatment with the inhibitor (mRNA, tropoelastin, insoluble elastin, elastic fibers): inhibitor pre-incubation then 100 μM SA, probenecid 400 μM", "experimental": "Cell Cultures—Fibroblasts initially grew out from the explants of these full thickness skin biopsies and were maintained. The primary cultures of fat-derived fibroblasts obtained from Thermogenesis (Rancho Cordova, Calif.) were also tested. In all described experiments, 2-4 passages of both kinds of fibroblasts were used. In experiments aimed at assessing ECM production, cells were initially plated at a concentration of 100,000 cells/dish.\nas §1\nQuantitative Assays of Insoluble Elastin—Fibroblasts were grown to confluency in 35-mm culture dishes (100,000 cells/dish). Next, 2 μCi of [3H]-valine/ml (Amersham Biosciences Ltd. Oakville, Canada), were added to each dish along with or without the indicated treatments. At the end of each experiment, the levels of metabolically labeled NaOH-insoluble elastin present in individual cultures were assayed and normalized per their DNA content."}, "[5]": {"system": "explants of dermal scars", "experiment": "Organ culture of skin explants (histochemistry, insoluble elastin)", "type": "cell-based, human", "details": "1 mM DMOG alone", "experimental": "Organ culture of skin explants—Fragments of normal skin, stretch-marked skin and dermal scars collected during plastic surgery procedures were cut into multiple 4 mm2 pieces and maintained for 7 days in DMEM medium containing 5% FBS, […] The parallel quadruplicate explants from each experimental group were additionally maintained in the presence 2 μCi of [3H]-valine/ml and then subjected to the assay of insoluble elastin. The parallel explants from each experimental groups were also evaluated after pentachrome Movat's staining which allows for clear marking of elastic fibers. In each experimental group, 50 sections derived from quadruplicate explants were analyzed."}, "[6]": {"target": "T1, IGF-1 receptor (Homo sapiens, UniProt P08069)", "T1 construct": "immuno-precipitated with antibody to β subunit of IGF-1R and detected by Western blotting with anti-phospho-tyrosine antibody; endogenous in cells; host or cells: cultured dermal fibroblasts", "T1 sequence (P08069 741-1367 limits assumed)": "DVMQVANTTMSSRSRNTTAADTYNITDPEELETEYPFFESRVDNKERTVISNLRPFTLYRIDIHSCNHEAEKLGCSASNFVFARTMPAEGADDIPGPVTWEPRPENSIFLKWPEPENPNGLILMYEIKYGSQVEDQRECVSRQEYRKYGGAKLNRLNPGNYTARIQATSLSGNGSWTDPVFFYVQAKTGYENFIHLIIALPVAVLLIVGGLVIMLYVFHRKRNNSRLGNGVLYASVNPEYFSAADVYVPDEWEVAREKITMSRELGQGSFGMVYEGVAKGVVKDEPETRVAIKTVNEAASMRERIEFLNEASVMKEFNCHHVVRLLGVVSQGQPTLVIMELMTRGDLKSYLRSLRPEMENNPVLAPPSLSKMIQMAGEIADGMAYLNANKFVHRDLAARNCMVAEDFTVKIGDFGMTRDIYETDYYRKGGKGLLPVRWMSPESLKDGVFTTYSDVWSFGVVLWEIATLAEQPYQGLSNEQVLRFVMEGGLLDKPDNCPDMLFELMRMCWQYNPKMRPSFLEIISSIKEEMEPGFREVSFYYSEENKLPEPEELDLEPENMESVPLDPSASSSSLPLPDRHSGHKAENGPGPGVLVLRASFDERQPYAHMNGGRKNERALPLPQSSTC", "T1 sequence (P08069 31-736 partner limits assumed)": "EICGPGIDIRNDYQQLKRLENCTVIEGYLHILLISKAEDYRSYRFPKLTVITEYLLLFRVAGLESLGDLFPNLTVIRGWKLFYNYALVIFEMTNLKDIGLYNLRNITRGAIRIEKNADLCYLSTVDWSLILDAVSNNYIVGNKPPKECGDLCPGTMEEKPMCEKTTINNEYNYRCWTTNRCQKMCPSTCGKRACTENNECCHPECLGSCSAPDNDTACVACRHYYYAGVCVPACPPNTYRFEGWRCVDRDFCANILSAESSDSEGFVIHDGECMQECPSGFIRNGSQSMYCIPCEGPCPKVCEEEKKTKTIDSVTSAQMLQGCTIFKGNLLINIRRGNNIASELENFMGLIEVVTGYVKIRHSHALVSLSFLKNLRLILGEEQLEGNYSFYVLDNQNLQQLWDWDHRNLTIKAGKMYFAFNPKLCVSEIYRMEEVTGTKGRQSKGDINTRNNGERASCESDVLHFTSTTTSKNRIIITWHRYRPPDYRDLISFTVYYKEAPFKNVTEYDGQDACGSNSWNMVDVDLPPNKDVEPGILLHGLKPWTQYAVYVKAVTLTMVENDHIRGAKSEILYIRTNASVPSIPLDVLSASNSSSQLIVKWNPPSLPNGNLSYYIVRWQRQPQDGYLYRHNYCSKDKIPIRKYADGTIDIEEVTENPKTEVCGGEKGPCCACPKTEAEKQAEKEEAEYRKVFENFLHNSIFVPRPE", "experiment": "IGF-1R phosphorylation (immuno-precipitation, anti-phospho-tyrosine Western blot)", "type": "cell-based", "details": "pretreated and maintained with inhibitor, 100 μM SA", "experimental": "At the end of each experiment cells were submerged in the lysis buffer containing a broad-range phosphatase inhibitor. The polyclonal antibodies recognizing either the β subunits of the IGF-IR or the β subunit of the insulin receptor were immobilized on separate sets of the IgG-bearing magnetic beads (Invitrogen Canada Inc, Burlington, ON) and then incubated for 1 hour with the aliquots of the cell lysates containing 400 μg of protein as described in the manufacturer protocol. The beads bearing the resulting immuno-precipitation products were re-suspended in sample buffer and the released proteins were resolved with SDS-PAGE and subjected to Western blotting with a monoclonal anti-p-Tyr (PY99) antibody from Santa Cruz Biotechnology Inc. (Santa Cruz, Calif.) and then with HRP-conjugated goat anti-mouse secondary antibody."}, "[7]": {"details": "DMOG added along with 100 μM SA"}}, "note": "“Also recorded” adds a separate entry of the source."}
{"molecule": "O=C1O[C@H]([C@@H](O)CO)C(O)=C1O", "note": "[AA, L-ascorbic acid]", "values": [{"measurement": "deposition of immuno-detected collagen fibers", "setting": "[1]; 100 μM, 24-hour-old cultures, 5% FBS", "value": "stimulated collagen deposition"}, {"measurement": "production of elastic fibers / elastogenesis", "setting": "[2]", "value": "selective inhibition of new elastogenesis"}, {"measurement": "levels of intracellular ROS", "setting": "[3]; 100 μM, 2 hours", "value": "did not display any decrease in ROS contents"}]}
{"molecule": "COc1ccc(CNc2nc(N(CCO)CCO)nc3c2ncn3C(C)C)cc1", "note": "[CVT313, reference compound]", "values": [{"measurement": "elastogenic effects of 100 μM SA after pre-treatment with the inhibitor (mRNA, tropoelastin, insoluble elastin, elastic fibers)", "setting": "[4]; 5% FBS", "value": "eliminated elastogenic effects of 100 μM SA"}]}
{"molecule": "COC(=O)CNC(=O)C(=O)OC", "note": "[DMOG, reference compound]", "values": [{"measurement": "deposition of collagen fibers", "setting": "[1]; [7]", "value": "inhibits the deposition of collagen fibers"}, {"measurement": "elastic fibers in ECM", "setting": "[5]", "value": "did not revealed any elastic fibers"}, {"measurement": "SA-enhanced production of elastic fibers", "setting": "[4]; [7]", "value": "did not interfere with the enhanced production of elastic fibers; also recorded: does not diminish the elastogenic effect of SA"}]}
{"molecule": "CC(C)(C)n1nc(-c2ccc(Cl)cc2)c2c(N)ncnc21", "note": "[PP2, reference compound]", "values": [{"measurement": "SA-induced enhancement of IGF-1R phosphorylation in inhibitor-pretreated cultures", "setting": "[6]", "value": "eliminated"}, {"measurement": "elastogenic effects of 100 μM SA after pre-treatment with the inhibitor (mRNA, tropoelastin, insoluble elastin, elastic fibers)", "setting": "[4]; 5% FBS", "value": "did not trigger elastogenic effects; also recorded: abolish all elastogenic effects"}]}
{"molecule": "COc1cc([C@@H]2c3cc4c(cc3[C@H](O)[C@H]3COC(=O)[C@@H]23)OCO4)cc(OC)c1OC", "note": "[PPP, reference compound]", "values": [{"measurement": "SA-induced enhancement of IGF-1R phosphorylation in inhibitor-pretreated cultures", "setting": "[6]", "value": "eliminated"}]}
{"molecule": "CCCN(CCC)S(=O)(=O)c1ccc(C(=O)O)cc1", "note": "[probenecid, Probenecid, reference compound]", "values": [{"measurement": "SA-induced decrease of ROS after probenecid pre-incubation", "setting": "[3]; probenecid pre-incubation, then 100 μM SA for 2 hours", "value": "could not be observed"}, {"measurement": "basic deposition of elastic fibers", "setting": "[4]; 100-400 μM probenecid alone, 24 hours, versus untreated control", "value": "did not demonstrate any decrease in their basic deposition of elastic fibers"}, {"measurement": "elastogenic effects of 100 μM SA after pre-treatment with the inhibitor (mRNA, tropoelastin, insoluble elastin, elastic fibers)", "setting": "[4]; 5% FBS", "value": "eliminated the elastogenetic effects of 100 μM SA; also recorded: averts the induction of elastogenic effects"}]}
{"molecule": "IGF-1: human IGF-I from Sigma-Aldrich, elastogenic stimulator", "values": [{"measurement": "elastogenic effects", "setting": "[4]; 50 ng/ml exogenous IGF-1, 24-hour treatment, 5% FBS", "value": "strong elastogenic effects"}]}
{"molecule": "TGF-[…]1: elastogenic stimulator (TGF-β1, Greek letter lost)", "values": [{"measurement": "elastogenesis", "setting": "[4]; 1 ng/ml TGF-[…]1", "value": "increase in elastogenesis"}]}
